# Values joined by “and” are separate entries in the source; they are usually repeats but may differ in a detail not shown here. Equal values may be shown once. Read-outs that look alike come from different tables or passages of the source.
# Tests used:
# [1] = tested on: T1, Human TLR7/8; test: Human PBMC cell-based assay, RNA-Ig (SL4-Ig) stimulus, cytokine ELISA
# T1 construct: IC50; other: Hu PBMC; ligand RNA-Ig; analyte IL-6; analyte TNFα; ligand R848; IC50 against the RNA-Ig TLR7/8 stimulus; cytokine responses to RNA-Ig complexes in vitro; potency against the RNA-Ig TLR7/8 stimulus versus HCQ
# Procedure: Briefly, 25 ml blood was diluted with 15 ml PBS (without Ca^2+, Mg^2+) in a 50 ml conical tube, and 12 ml Histopaque was underlaid using a spinal needle. Tubes were centrifuged for 45 minutes at 1200 rpm (350×g), and PBMC were collected from the buffy coat. Cells were then washed twice in PBS, and red blood cells were lysed by suspension in 5 ml ammonium chloride solution (1× Red Blood Cell Lysis Buffer, eBioscience) for 5 minutes at room temperature.
# Antagonist compounds solubilized and serial diluted in 100% DMSO were added in triplicate to cells to yield a final concentration of 0.1% DMSO (v/v). Hydroxychloroquine (Acros Organics) solubilized and serial diluted in PBS was added in triplicate to cells. […] The resulting “RNA-Ig” stimulus was incubated at room temperature for 15-30 minutes before adding to cells. PBMC were incubated with the various TLR agonists for 20 hours at 37° C., 5% CO2. Cell culture supernatants were collected, and levels of various human cytokines were assessed as indicated by standard ELISA procedure according to the manufacturer's recommended protocol (BD Biosciences, Inc., San Diego, Calif.).
# [2] = biological target: T2, Mouse TLR7 (Mus musculus, UniProt P58681); test: Short-term in vivo (STIV) assay: plasma IL-6 after s.c. R848
# T2 construct: endogenous in cells; host or cells: female BALB/c mice, in vivo
# T2 sequence (P58681 27-1050): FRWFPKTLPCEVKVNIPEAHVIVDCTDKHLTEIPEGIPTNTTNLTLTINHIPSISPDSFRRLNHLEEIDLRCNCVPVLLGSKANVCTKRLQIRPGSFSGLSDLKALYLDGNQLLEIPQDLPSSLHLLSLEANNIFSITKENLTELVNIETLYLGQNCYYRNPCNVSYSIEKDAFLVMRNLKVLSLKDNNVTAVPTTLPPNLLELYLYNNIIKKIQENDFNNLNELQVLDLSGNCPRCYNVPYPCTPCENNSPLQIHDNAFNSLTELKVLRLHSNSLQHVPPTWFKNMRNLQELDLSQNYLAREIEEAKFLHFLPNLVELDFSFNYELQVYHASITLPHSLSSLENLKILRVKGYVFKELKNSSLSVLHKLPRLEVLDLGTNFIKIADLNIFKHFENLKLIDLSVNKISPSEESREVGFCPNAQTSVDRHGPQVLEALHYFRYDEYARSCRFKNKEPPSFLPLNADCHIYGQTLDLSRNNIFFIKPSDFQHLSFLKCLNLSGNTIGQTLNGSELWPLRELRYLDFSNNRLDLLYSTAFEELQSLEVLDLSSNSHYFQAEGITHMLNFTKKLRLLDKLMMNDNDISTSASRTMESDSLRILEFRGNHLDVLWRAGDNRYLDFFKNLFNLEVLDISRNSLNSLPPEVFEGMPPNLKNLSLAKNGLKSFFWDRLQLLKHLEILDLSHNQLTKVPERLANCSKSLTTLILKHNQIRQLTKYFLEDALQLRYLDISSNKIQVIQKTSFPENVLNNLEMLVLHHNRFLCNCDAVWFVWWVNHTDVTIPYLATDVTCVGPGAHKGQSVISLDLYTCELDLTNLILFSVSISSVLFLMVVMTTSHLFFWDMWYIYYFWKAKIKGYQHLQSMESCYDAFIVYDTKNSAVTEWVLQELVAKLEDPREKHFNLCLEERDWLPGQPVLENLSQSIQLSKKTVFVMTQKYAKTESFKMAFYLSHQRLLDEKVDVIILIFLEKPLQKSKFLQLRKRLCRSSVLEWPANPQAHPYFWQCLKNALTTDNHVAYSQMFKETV
# Procedure: Figure Legend: Female BALB/c mice were dosed by oral gavage with Vehicle alone (0.5% aqueous methyl-cellulose) or compound ER-892887 formulated in Vehicle at 100 mg/kg or 300 mg/kg. At 13 or 24 hours following oral dosing, mice were injected subcutaneously with 15 ug R848 to stimulate TLR7. Blood plasma was collected by cardiac puncture, and the IL-6 level at 1.5 hours after TLR7 stimulation was then assessed by standard ELISA procedure. Percent suppression indicated is relative to IL-6 induction following Vehicle control dosing. Statistical significance was determined by Mann-Whitney test.
# To assess compound potency in vivo against mouse TLR7, a short-term in vivo (STIV) assay was utilized. Briefly, mice were orally dosed with compounds and at various time points afterwards were injected subcutaneously with agonist R848 to stimulate TLR7. The plasma IL-6 level following R848 stimulation was then measured by ELISA to assess compound potency and duration-of-action. […] Therefore, the activity of compounds in the STIV assay can be confidently attributed to their modulation of the TLR7 pathway. A single oral dose of ER-892887 at 300 mg/kg suppresses the R848/TLR7/IL-6 pathway in vivo by 80-90% for at least 24 hours (see FIG. 1).
# Six to eight week old female BALB/c mice (Jackson Labs, Bar Harbor, Me.) were dosed by oral gavage in 200 ul volume with antagonist compounds formulated in 0.5% aqueous methyl-cellulose (Sigma, St. Louis, Mo.). At various time points afterwards, mice were injected subcutaneously (s.c.) in 100 ul volume with 15 ug R848 (Resiquimod; GLSynthesis, Worcester, Mass.) to stimulate TLR7. Blood plasma was collected by cardiac puncture, and levels of IL-6 at 1.5 hours after TLR7 stimulation were then assessed by standard ELISA procedure according to the manufacturer's recommended protocol (R&D Systems).
# [3] = Human PBMC IL-6 Inhibition (SL4-Ig Ligand), read-out: Human PBMC IC50
# [4] = time point 6 hr, dose 33 mg/kg oral
# [5] = time point 6 hr, dose 100 mg/kg oral
# [6] = time point 13 hr, dose 33 mg/kg oral
# [7] = time point 13 hr, dose 100 mg/kg oral
smiles,measurement,setting,value
COc1ccc([C@@H]2C[C@H](C(F)(F)F)n3nc(-c4ccncc4)cc3N2)cc1OC [ER-885454],IC50,[1]; [3],676 nM
same,% Suppression vs. Vehicle,"[2]; time point 19 hr, dose 100 mg/kg oral",56%
same,% Suppression vs. Vehicle,"[2]; time point 19 hr, dose 300 mg/kg oral",100%
"COc1ccc([C@@H]2C[C@H](C(F)(F)F)n3nc(-c4ccc(C(=O)N5CCNCC5)cc4)cc3N2)cc1OC [ER-892887, (4-((5S,7R)-5-(3,4-dimethoxyphenyl)-7-(trifluoromethyl)-4,5,6,7-tetrahydropyrazolo[1,5-a]pyrimidin-2-yl)phenyl)(piperazin-1-yl)methanone]",cytokine responses to RNA-Ig complexes in vitro,[1],blocks
same,IC50,"[1]; Hu PBMC, ligand RNA-Ig, analyte TNFα, read-out: IC50",13 nM
same,IC50,[1]; [3],40 nM and 51 nM
same,potency against the RNA-Ig TLR7/8 stimulus versus HCQ,"[1]; ratio of IC50 values, more potent than HCQ",approximately 100 fold
same,IC50,[1]; read-out: IC50 against the RNA-Ig TLR7/8 stimulus,15 nM
same,suppression of the R848/TLR7/IL-6 pathway in vivo,[2]; single oral dose 300 mg/kg,80-90%
same,duration of suppression of the R848/TLR7/IL-6 pathway in vivo,"[2]; single oral dose 300 mg/kg, 80-90% suppression",at least 24 hours
same,% Suppression vs. Vehicle,[2]; [4],83%
same,% Suppression vs. Vehicle,[2]; [5],100%
same,% Suppression vs. Vehicle,"[2]; time point 13 hr, dose 11 mg/kg oral",27%
same,% Suppression vs. Vehicle,[2]; [6],12%
same,% Suppression vs. Vehicle,[2]; [7],49%
same,% Suppression vs. Vehicle,"[2]; time point 13 hr, dose 300 mg/kg oral",90%
same,% Suppression vs. Vehicle,"[2]; time point 24 hr, dose 33 mg/kg oral",0%
same,% Suppression vs. Vehicle,"[2]; time point 24 hr, dose 100 mg/kg oral",12%
same,% Suppression vs. Vehicle,"[2]; time point 24 hr, dose 300 mg/kg oral",86%
Cc1nn(C)cc1[C@@H]1C[C@H](C(F)(F)F)n2nc(-c3ccc(NC(N)=O)cc3)cc2N1 [ER-894595],IC50,[1]; [3],2160 nM
same,% Suppression vs. Vehicle,[2]; [4],0%
same,% Suppression vs. Vehicle,[2]; [5],57%
same,% Suppression vs. Vehicle,[2]; [6],0%
same,% Suppression vs. Vehicle,[2]; [7],0%
Cc1nn(C)cc1[C@H]1C[C@@H](C(F)(F)F)n2nc(-c3ccc(NC(N)=O)cc3)cc2N1 [ER-894596],IC50,[1]; [3],1750 nM

# Reference: US9126999B2, “Tetrahydropyrazolopyrimidine compounds” (EISAI R&D MANAGEMENT CO., LTD., priority 2012, dated 2015)
